From PMC7144934, “Design, Synthesis and Biological Evaluation of Phenyl Urea Derivatives as IDO1 Inhibitors” (Molecules, 2020)

Key:
IDO1 = system: IDO1; set-up: method as in PMID 30760888; details: Figure 1; cited from earlier work
[1] = target: T1, Recombinant human TDO (rhTDO) (Homo sapiens, UniProt P48775); assay: Enzyme assay for TDO inhibition; format: biochemical; details: 37 °C, 45 min
T1 construct: made in house
Experimental: Recombinant human IDO1 and TDO were expressed and purified according to the reported procedures. The assay was performed according to the literature: A standard reaction mixture (100 µL) containing 100 mM potassium phosphate buffer (pH 6.5), 40 mM ascorbic acid (neutralized with NaOH), 200 µg/mL catalase, 20 µM methylene blue and 0.05 µM rhIDO1 or rhTDO was added to the solution containing the substrate L-tryptophan and the test sample at a determined concentration. The reaction was carried out at 37 °C for 45 min and stopped by adding 20 µL of 30% (w/v) trichloroacetic acid. After heating at 65 °C for 15 min, 100 µL of 2% (w/v) p-dimethylaminobenzaldehyde in acetic acid was added to each well. The yellow pigment derived from kynurenine was measured at 492 nm using a SYNERGY-H1 microplate reader (Biotek Instruments, Inc., Winooski, VT, USA). IC50 was analyzed using the GraphPad Prism 8.0 software (GraphPad Software, San Diego, CA, USA).

[2] = target: T2, Recombinant human IDO1 (rhIDO1) (Homo sapiens, UniProt P14902); assay: Enzyme assay for IDO1 inhibition; format: biochemical; details: for IDO1 inhibitory activity (in words) / IC50: rhIDO1 enzyme assay; for IC50: 37 °C, 45 min
T2 construct: made in house
T2 sequence (P14902 whole entry): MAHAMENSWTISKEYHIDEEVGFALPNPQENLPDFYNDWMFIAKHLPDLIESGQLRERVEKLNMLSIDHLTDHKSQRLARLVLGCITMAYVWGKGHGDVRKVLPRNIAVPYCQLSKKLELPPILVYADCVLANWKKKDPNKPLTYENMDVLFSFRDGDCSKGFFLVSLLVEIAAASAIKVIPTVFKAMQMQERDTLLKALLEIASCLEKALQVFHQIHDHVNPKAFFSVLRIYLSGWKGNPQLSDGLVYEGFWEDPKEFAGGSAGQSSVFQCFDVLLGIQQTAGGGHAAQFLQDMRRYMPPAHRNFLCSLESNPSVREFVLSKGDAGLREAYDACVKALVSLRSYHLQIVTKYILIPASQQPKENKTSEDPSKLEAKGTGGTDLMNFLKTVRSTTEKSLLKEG

T1 sequence (P48775 whole entry): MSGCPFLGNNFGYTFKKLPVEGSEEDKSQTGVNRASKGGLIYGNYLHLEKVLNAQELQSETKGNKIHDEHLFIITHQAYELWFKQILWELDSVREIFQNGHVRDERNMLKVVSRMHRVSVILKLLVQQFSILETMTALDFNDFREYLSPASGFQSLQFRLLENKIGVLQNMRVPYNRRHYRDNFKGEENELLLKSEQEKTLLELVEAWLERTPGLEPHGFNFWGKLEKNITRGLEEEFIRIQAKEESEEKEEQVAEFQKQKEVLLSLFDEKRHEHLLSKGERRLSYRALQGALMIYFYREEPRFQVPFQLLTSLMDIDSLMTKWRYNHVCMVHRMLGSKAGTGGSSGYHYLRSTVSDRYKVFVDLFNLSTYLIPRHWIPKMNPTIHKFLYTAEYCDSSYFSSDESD

| Compound | IC50 [1] [µM] | IDO1 inhibitory activity (in words) [2] | IC50 [2] [µM] | fold more potent than compound BMS-E30 (IDO1) ([2]; ratio of IDO1 enzyme IC50 values) [fold] | IC50 (IDO1) [nM] |
| --- | --- | --- | --- | --- | --- |
| C[C@@H](C(=O)Nc1ccc(Cl)cc1)C1CCC(c2ccnc3ccc(F)cc23)CC1 (stereo partly drawn) [BMS-986205] |  |  |  |  | 1.7 |
| COc1ccc(NC(=O)Nc2cc(C(CC(=O)O)C(F)(F)F)ccc2N2CC(C)CC(C)C2)cc1 (stereo not drawn) [i15, 3-{4-(3,5-dimethylpiperidin-1-yl)-3-[3-(4-methoxyphenyl)ureido]-phenyl}-4,4,4-trifluorobutyric Acid] | > 100 | more potent IDO1 inhibitory activity than the unsubstituted i1 | 1.62 |  |  |
| CC1CC(C)CN(c2ccc(C(CC(=O)O)C(F)(F)F)cc2NC(=O)Nc2ccc(C(C)C)cc2)C1 (stereo not drawn) [i21, 3-{4-(3,5-dimethylpiperidin-1-yl)-3-[3-(4-isopropylphenyl)ureido]-phenyl}-4,4,4-trifluorobutyric Acid] | > 100 | loss of activity | > 100 |  |  |
| CC1CC(C)CN(c2ccc(C(CC(=O)O)C(F)(F)F)cc2NC(=O)Nc2ccc(OC(F)(F)F)cc2)C1 (stereo not drawn) [i22, 3-{4-(3,5-dimethylpiperidin-1-yl)-3-[3-(4-trifluoromethoxyphenyl)-ureido]phenyl}-4,4,4-trifluorobutyric Acid] | > 100 |  | 1.32 |  |  |
| CC1CC(C)CN(c2ccc(C(CC(=O)O)C(F)(F)F)cc2NC(=O)Nc2ccc(C(F)(F)F)cc2)C1 (stereo not drawn) [i23, 3-{4-(3,5-dimethylpiperidin-1-yl)-3-[3-(4-trifluoromethylphenyl)-ureido]phenyl}-4,4,4-trifluorobutyric Acid] | > 100 |  | 0.415 |  |  |
| CC1CC(C)CN(c2ccc(C(CC(=O)O)C(F)(F)F)cc2NC(=O)Nc2ccc([N+](=O)[O-])cc2)C1 (stereo not drawn) [i24, 3-{4-(3,5-dimethylpiperidin-1-yl)-3-[3-(4-nitrophenyl)ureido]phenyl}-4,4,4-trifluorobutyric Acid] | > 100 |  | 0.157 | 55 |  |
| CC1CC(C)CN(c2ccc(C(CC(=O)O)C(F)(F)F)cc2NC(=O)Cc2ccc(C#N)cc2)C1 (stereo not drawn) [j1, 3-[3-[2-(4-cyanophenyl)acetylamino]-4-(3,5-dimethylpiperidin-1-yl)-phenyl]-4,4,4-trifluorobutyric Acid] | > 100 | no inhibitory activity | > 100 |  |  |
| CC1CC(C)CN(c2ccc(C(CC(=O)O)C(F)(F)F)cc2NC(=O)Cc2ccc(C(F)(F)F)cc2)C1 (stereo not drawn) [j2, 3-{4-(3,5-dimethylpiperidin-1-yl)-3-[2-(4-trifluoromethylphenyl)-acetylamino]phenyl}-4,4,4-trifluorobutyric Acid] | > 100 | no inhibitory activity | > 100 |  |  |
| CC1CC(C)CN(c2ccc(C(CC(=O)O)C(F)(F)F)cc2NC(=O)Cc2ccc([N+](=O)[O-])cc2)C1 (stereo not drawn) [j3, 3-{4-(3,5-dimethylpiperidin-1-yl)-3-[2-(4-nitrophenyl)acetylamino]-phenyl}-4,4,4-trifluorobutyric Acid] | > 100 | no inhibitory activity | > 100 |  |  |

Now from value to molecule, other results behind:

| IC50 [1] [µM] | IDO1 inhibitory activity (in words) [2] | IC50 [2] [µM] | fold more potent than compound BMS-E30 (IDO1) ([2]; ratio of IDO1 enzyme IC50 values) [fold] | Compound | IC50 (IDO1) [nM] |
| --- | --- | --- | --- | --- | --- |
| > 100 | lost all IDO1 inhibitory activity | > 100 |  | CC1CC(C)CN(c2ccc(C(CC(=O)O)C(F)(F)F)cc2NC(=O)Nc2cccc(C#N)c2)C1 (stereo not drawn) [i11, 3-[3-[3-(3-cyanophenyl)ureido]-4-(3,5-dimethylpiperidin-1-yl)-phenyl]-4,4,4-trifluorobutyric Acid] |  |
| > 100 | lost all IDO1 inhibitory activity | > 100 |  | COc1ccccc1NC(=O)Nc1cc(C(CC(=O)O)C(F)(F)F)ccc1N1CC(C)CC(C)C1 (stereo not drawn) [i13, 3-{4-(3,5-dimethylpiperidin-1-yl)-3-[3-(2-methoxyphenyl)ureido]-phenyl}-4,4,4-trifluorobutyric Acid] |  |
| > 100 | lost all IDO1 inhibitory activity | > 100 |  | COc1cccc(NC(=O)Nc2cc(C(CC(=O)O)C(F)(F)F)ccc2N2CC(C)CC(C)C2)c1 (stereo not drawn) [i14, 3-{4-(3,5-dimethylpiperidin-1-yl)-3-[3-(3-methoxyphenyl)ureido]-phenyl}-4,4,4-trifluorobutyric Acid] |  |
| > 100 | no inhibitory activities | > 100 |  | CC1CC(C)CN(c2ccc(C(CC(=O)O)C(F)(F)F)cc2NC(=O)Nc2ccc(F)cc2F)C1 (stereo not drawn) [i16, 3-[3-[3-(2,4-difluorophenyl)ureido]-4-(3,5-dimethylpiperidin-1-yl)-phenyl]-4,4,4-trifluorobutyric Acid] |  |
| > 100 | no inhibitory activities | > 100 |  | CC1CC(C)CN(c2ccc(C(CC(=O)O)C(F)(F)F)cc2NC(=O)Nc2ccc(Cl)cc2Cl)C1 (stereo not drawn) [i17, 3-[3-[3-(2,4-dichlorophenyl)ureido]-4-(3,5-dimethylpiperidin-1-yl)-phenyl]-4,4,4-trifluorobutyric Acid] |  |
| > 100 |  | 5.48 |  | CC1CC(C)CN(c2ccc(C(CC(=O)O)C(F)(F)F)cc2NC(=O)Nc2ccc(F)cc2)C1 (stereo not drawn) [i18, 3-{4-(3,5-dimethylpiperidin-1-yl)-3-[3-(4-fluorophenyl)ureido]-phenyl}-4,4,4-trifluorobutyric Acid] |  |
| > 100 |  | 4.08 |  | CC1CC(C)CN(c2ccc(C(CC(=O)O)C(F)(F)F)cc2NC(=O)Nc2ccc(Br)cc2)C1 (stereo not drawn) [i19, 3-[3-[3-(4-bromophenyl)ureido]-4-(3,5-dimethylpiperidin-1-yl)-phenyl]-4,4,4-trifluorobutyric Acid] |  |
| > 100 |  | 9.98 |  | CCc1ccc(NC(=O)Nc2cc(C(CC(=O)O)C(F)(F)F)ccc2N2CC(C)CC(C)C2)cc1 (stereo not drawn) [i20, 3-{4-(3,5-dimethylpiperidin-1-yl)-3-[3-(4-ethylphenyl)ureido]phenyl}-4,4,4-trifluorobutyric Acid] |  |
